Measurements reported in publication PMC4184702 (Pharmacology Research & Perspectives, 2014).
pKi: −log10 of the molar value.

Experiments:
strain TA1535 = experiment: Ames test, strain TA1535; assay type: cell-based
5-HT6 = target: T1, 5-HT6 (Homo sapiens, UniProt P50406); experiment: PDSP primary binding, 5-HT6; conditions: n = 4, read-out: Inhibition (primary binding competition efficacy), 5-HT6
T1 construct: purchased NIMH Psychoactive Drug Screening Program (PDSP)
Procedure: (§1) For experimental details, please refer to the Psychoactive Drug Screening Program (PDSP) web site http://pdsp.med.unc.edu/.
(§2) ^a The default concentration for primary binding experiments is 10 µM (n = 4). ^b Negative inhibition represents a stimulation of binding. ^c BZPR: Benzodiazepine Receptors (rat brain site). ^d DOR: Delta Opioid Receptor; KOR: Kappa Opioid Receptor; MOR: Mu Opioid Receptor. ^e DAT: Dopamine Transporter; NET: Norepinephrine Transporter; SERT: Serotonin Transporter. ^f NMDA: N-methyl-D-aspartate receptor.

GABAA = experiment: PDSP primary binding, GABAA; conditions: 10 µM, n = 4
Procedure: as §1, §2

[1] = Plasma and brain levels after NSF (UHPLC-MS-MS); assay type: in vivo, mouse
Procedure: The chamber floor is covered with bedding (∼0.5″). […] Samples are stored at −80°C until analysis.
Compound LF-3-99 (10 ng/mL, See Fig. S1 for structure) was used as an internal standard.

α2B adrenergic receptor = target: T2, α2B adrenergic receptor (Homo sapiens, UniProt P18089); experiment: PDSP primary binding, α2B; conditions: n = 4, read-out: Inhibition (primary binding competition efficacy), α2B
T2 construct: purchased NIMH Psychoactive Drug Screening Program (PDSP)
T2 sequence (P18089 whole entry): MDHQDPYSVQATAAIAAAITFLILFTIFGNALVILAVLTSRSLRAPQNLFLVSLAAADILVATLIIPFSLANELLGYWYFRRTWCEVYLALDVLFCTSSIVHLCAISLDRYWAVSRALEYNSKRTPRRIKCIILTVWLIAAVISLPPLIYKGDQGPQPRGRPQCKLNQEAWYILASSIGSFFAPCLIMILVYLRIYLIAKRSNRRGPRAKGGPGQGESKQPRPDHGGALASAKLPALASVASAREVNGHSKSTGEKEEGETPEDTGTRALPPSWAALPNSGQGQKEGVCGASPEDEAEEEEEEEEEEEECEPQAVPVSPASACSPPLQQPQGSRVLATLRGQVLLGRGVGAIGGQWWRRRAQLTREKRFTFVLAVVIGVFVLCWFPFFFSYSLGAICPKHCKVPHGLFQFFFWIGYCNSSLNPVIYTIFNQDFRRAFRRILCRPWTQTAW
Procedure: as §1, §2

5-HT1A = target: T3, 5-HT1A (Homo sapiens, UniProt P08908); experiment: PDSP primary binding, 5-HT1A; conditions: n = 4, read-out: Inhibition (primary binding competition efficacy), 5-HT1A
T3 construct: purchased NIMH Psychoactive Drug Screening Program (PDSP)
T3 sequence (P08908 whole entry): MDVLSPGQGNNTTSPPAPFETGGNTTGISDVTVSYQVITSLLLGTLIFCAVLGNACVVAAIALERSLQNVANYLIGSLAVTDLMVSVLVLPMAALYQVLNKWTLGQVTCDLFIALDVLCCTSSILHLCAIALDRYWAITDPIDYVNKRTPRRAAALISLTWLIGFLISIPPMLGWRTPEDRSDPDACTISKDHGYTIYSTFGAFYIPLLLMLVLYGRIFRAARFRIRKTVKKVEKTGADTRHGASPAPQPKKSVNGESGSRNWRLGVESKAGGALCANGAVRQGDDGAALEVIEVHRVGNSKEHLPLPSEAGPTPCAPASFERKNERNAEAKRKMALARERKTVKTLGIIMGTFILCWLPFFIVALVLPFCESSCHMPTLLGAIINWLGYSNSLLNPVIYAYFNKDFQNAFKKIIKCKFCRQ
Procedure: as §1, §2

V1A = target: T4, V1A (Homo sapiens, UniProt P37288); experiment: PDSP primary binding, V1A; conditions: n = 4, read-out: Inhibition (primary binding competition efficacy), V1A
T4 construct: purchased NIMH Psychoactive Drug Screening Program (PDSP)
T4 sequence (P37288 whole entry): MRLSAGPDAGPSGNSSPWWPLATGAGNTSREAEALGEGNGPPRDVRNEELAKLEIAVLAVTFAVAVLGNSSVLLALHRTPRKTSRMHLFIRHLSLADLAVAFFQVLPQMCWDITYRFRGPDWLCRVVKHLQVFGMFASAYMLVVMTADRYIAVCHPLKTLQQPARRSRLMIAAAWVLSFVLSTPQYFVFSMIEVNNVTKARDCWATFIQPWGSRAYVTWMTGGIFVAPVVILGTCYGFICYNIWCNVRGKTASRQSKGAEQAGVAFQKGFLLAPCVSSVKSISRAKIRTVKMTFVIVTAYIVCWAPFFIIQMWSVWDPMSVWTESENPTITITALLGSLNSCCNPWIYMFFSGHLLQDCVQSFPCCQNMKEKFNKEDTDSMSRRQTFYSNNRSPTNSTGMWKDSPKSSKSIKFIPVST
Procedure: as §1, §2

α1B adrenergic receptor = target: T5, α1B adrenergic receptor (Homo sapiens, UniProt P35368); experiment: PDSP primary binding, α1B; conditions: n = 4, read-out: Inhibition (primary binding competition efficacy), α1B
T5 construct: purchased NIMH Psychoactive Drug Screening Program (PDSP)
T5 sequence (P35368 whole entry): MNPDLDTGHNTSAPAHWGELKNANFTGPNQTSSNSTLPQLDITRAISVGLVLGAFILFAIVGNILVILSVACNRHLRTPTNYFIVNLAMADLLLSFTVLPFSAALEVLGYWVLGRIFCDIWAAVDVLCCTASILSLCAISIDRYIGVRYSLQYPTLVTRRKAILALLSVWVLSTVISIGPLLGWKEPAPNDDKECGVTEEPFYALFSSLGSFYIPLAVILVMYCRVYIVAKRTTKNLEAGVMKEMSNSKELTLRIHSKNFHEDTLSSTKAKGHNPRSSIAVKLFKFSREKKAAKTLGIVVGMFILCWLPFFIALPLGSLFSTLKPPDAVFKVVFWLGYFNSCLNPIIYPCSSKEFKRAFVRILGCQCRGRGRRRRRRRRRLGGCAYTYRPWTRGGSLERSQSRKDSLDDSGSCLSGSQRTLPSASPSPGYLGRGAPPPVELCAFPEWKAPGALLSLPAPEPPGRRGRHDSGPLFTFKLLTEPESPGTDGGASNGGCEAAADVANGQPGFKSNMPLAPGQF
Procedure: as §1, §2

α7* nAChR = conditions: ref Yu et al. [2012], cited from earlier work
[2] = Bacterial cytotoxicity, strain TA98; assay type: cell-based; conditions: Salmonella typhimurium, bacterial tester strain TA98 without S9, read-out: Cytotoxicity (% of Control Values)
Source text: Supplement prp20002-e00026-sd1.doc, table 4: Table 4.

CB1 = target: T6, CB1 (Homo sapiens, UniProt P21554); experiment: PDSP primary binding, CB1; conditions: n = 4, read-out: Inhibition (primary binding competition efficacy), CB1
T6 construct: purchased NIMH Psychoactive Drug Screening Program (PDSP)
T6 sequence (P21554 whole entry): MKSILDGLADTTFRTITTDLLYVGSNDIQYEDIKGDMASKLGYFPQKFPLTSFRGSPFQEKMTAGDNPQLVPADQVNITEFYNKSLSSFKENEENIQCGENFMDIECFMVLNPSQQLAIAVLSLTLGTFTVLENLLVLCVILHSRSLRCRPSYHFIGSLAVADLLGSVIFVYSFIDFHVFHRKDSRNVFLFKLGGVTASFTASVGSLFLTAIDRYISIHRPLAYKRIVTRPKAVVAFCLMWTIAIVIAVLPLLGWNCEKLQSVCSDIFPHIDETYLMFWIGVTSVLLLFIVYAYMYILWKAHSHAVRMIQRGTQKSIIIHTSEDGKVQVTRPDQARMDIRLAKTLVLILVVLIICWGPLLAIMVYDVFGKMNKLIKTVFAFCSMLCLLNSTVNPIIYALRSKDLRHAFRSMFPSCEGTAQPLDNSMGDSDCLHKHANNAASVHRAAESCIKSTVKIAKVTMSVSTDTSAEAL
Procedure: as §1, §2

CYP2D6 = target: T7, CYP2D6 (Homo sapiens, UniProt P10635); experiment: CYP2D6 inhibition, HLM, dextromethorphan substrate; assay type: in vitro ADME; conditions: 1.0E-05 M
T7 construct: from tissue; host or cells: human liver microsomes (HLM)
T7 sequence (P10635 whole entry): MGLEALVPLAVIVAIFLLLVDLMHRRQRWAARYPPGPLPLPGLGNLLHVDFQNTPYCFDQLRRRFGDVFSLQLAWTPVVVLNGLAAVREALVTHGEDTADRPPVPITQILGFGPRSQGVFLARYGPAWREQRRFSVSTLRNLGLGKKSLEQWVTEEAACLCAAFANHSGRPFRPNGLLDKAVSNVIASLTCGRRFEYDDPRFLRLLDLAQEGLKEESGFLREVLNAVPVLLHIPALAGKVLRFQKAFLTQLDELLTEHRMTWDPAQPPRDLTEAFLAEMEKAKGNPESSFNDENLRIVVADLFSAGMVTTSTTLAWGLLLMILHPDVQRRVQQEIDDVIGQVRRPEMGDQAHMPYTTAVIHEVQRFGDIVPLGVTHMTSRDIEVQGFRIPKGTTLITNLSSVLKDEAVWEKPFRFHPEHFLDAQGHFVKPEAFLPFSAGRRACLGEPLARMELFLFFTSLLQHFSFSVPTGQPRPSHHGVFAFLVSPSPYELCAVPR
Source text: (§3) Supplement prp20002-e00026-sd1.doc, table 3: Table 3.

Balb/CJ mice = experiment: Acute toxicity / mortality in Balb/C mice; conditions: 300 mg/kg, wild-type Balb/CJ mice
strain TA100 = experiment: Ames test, strain TA100; assay type: cell-based
CYP2C9 = target: T8, CYP2C9 (Homo sapiens, UniProt P11712); experiment: CYP2C9 inhibition, HLM, diclofenac substrate; assay type: in vitro ADME; conditions: 1.0E-05 M
T8 construct: from tissue; host or cells: human liver microsomes (HLM)
T8 sequence (P11712 whole entry): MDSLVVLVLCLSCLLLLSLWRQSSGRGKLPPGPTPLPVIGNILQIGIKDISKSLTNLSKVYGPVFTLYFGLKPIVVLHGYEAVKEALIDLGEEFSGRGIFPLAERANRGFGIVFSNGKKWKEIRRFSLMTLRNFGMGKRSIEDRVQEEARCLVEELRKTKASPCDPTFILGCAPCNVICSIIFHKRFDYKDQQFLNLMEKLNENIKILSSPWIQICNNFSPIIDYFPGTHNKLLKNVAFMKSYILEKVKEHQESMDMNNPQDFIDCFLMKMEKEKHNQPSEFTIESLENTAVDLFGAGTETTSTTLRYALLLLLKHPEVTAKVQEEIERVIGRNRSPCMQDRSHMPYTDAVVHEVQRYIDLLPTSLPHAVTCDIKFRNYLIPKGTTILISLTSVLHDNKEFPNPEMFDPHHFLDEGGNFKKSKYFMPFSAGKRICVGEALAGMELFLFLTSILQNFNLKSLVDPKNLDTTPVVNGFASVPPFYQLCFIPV
Source text: as §3

Male C57 BL6/J mice = system: Male C57 BL6/J mice
Procedure: Male C57 BL6/J (from Jackson Laboratories) mice were used for these studies. Upon receipt at 6 weeks of age, mice were single-housed in OptiMICE ventilated cages and acclimated to the colony room for 1 week prior to beginning of the dosing regimen at 7 weeks of age.
Mice were tested in NSF on day 29 of treatment. Eighteen hours prior to behavioral testing, all food was removed from the home cage. The NSF test was carried out during a 15-min period. The test chamber consists of a rectangular (14″ × 20″ × 6″) plastic box. The chamber floor is covered with bedding (∼0.5″). At the time of testing, animals were placed in the left front corner of the chamber and two food pellets (regular chow) were placed on a laminated white paper circle (13 cm in diameter) positioned in the center of the test chamber. The latency to eat is defined by the animal holding the food with one or both paws and taking a bite of the pellet and staying in the center eating for at least 5 sec. The mice were videotaped and tapes were scored by two trained observers blind to the treatments. […] Upon completion of NSF, about 50 60 min after the pretreatment, mice were decapitated and all animals from all treatment groups except from the imipramine group were processed for collection of trunk blood and whole-brain tissue. […]

5-HT2A = target: T9, 5-HT2A (Homo sapiens, UniProt P28223); experiment: PDSP primary binding, 5-HT2A; conditions: n = 4, read-out: Inhibition (primary binding competition efficacy), 5-HT2A
T9 construct: purchased NIMH Psychoactive Drug Screening Program (PDSP)
T9 sequence (P28223 whole entry): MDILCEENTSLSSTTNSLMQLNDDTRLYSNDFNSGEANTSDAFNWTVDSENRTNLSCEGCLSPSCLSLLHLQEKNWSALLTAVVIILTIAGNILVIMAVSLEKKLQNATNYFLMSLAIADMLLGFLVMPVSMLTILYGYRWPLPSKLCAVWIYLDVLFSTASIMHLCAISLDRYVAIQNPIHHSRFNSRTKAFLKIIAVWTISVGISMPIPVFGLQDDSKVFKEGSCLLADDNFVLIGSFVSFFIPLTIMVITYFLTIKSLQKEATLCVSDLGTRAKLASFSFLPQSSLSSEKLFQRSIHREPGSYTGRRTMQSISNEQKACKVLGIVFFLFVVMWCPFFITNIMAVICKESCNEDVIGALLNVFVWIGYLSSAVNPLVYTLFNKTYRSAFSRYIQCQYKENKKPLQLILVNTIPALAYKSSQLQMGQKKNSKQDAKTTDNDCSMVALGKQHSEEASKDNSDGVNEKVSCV
Procedure: as §1, §2

C57/BL6J mice = experiment: Preliminary acute maximum tolerated dose study; assay type: in vivo, mouse
[3] = with or without S9, 5, 10, 50, or 100 μmol/L
[4] = 5 mg/kg p.o., day 29, about 50-60 min after pretreatment

T1 sequence (P50406 whole entry): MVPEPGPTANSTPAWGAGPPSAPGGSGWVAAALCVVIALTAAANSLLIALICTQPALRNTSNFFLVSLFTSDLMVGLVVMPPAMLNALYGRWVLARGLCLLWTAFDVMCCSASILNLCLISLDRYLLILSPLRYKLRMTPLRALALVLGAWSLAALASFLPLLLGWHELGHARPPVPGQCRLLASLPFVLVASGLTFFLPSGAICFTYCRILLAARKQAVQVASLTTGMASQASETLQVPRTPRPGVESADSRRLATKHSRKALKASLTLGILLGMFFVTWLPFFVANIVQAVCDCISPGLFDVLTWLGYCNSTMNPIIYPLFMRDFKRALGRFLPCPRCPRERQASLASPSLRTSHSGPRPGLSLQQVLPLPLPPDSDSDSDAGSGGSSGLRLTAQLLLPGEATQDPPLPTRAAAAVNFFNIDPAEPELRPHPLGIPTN

OCCc1cc(-c2cncc(OC[C@@H]3CCN3)c2)on1 [LF-3-88, 2-[5-[5-(2(S)-azetidinylmethoxyl)-3-pyridyl]-3-isoxazolyl]ethanol]
Ames test Result (strain TA1535; strain TA1535 + S9, 1.0E-04 M): Negative
Ames test Result (strain TA1535; strain TA1535 + S9, 1.0E-05 M): Negative
Ames test Result (strain TA1535; strain TA1535 + S9, 5.0E-05 M): Negative
Ames test Result (strain TA1535; strain TA1535 + S9, 5.0E-06 M): Negative
Ames test Result (strain TA1535; strain TA1535 – S9, 1.0E-04 M): Negative
Ames test Result (strain TA1535; strain TA1535 – S9, 1.0E-05 M): Negative
Ames test Result (strain TA1535; strain TA1535 – S9, 5.0E-05 M): Negative
Ames test Result (strain TA1535; strain TA1535 – S9, 5.0E-06 M): Negative
mutagenic potential (Ames), TA1535 (strain TA1535; [3]): negative
inhibition at 10 µM (5-HT6): -1.9%
Inhibition (primary binding competition efficacy), GABAA (GABAA): -7.6%
Plasma level [1, 4]: 430 ± 172 ng/mL
brain level [1, 4]: 14 ± 4 ng/g
Plasma level ([1]; 10 mg/kg p.o., day 29): 942 ± 400 ng/mL
brain level ([1]; 10 mg/kg p.o., day 29): 31 ± 11 ng/g
inhibition at 10 µM (α2B adrenergic receptor): -17.7%
inhibition at 10 µM (5-HT1A): 4.2%
inhibition at 10 µM (V1A): 24.7%
inhibition at 10 µM (α1B adrenergic receptor): -1.8%
pKi (α7* nAChR; Figure 1): < 5.00
Ki α7* (α7* nAChR; rat forebrain, class symbol): NA (NA: not active, defined as < 50% binding in the primary assay at 10 μmol/L)
viability at 0.0001 M ([2]; strain TA98 – S9, 1.0E-04 M): 108%
viability at 10 µM ([2]; strain TA98 – S9, 1.0E-05 M): 92%
viability at 1.25 µM ([2]; strain TA98 – S9, 1.25E-06 M): 95%
viability at 25 µM ([2]; strain TA98 – S9, 2.5E-05 M): 94%
viability at 2.5 µM ([2]; strain TA98 – S9, 2.5E-06 M): 98%
viability at 50 µM ([2]; strain TA98 – S9, 5.0E-05 M): 102%
viability at 5 µM ([2]; strain TA98 – S9, 5.0E-06 M): 96%
viability at 625 nM ([2]; strain TA98 – S9, 6.25E-07 M): 97%
inhibition at 10 µM (CB1): 5.1%
CYP2D6 Inhibition (CYP2D6): -0.4%
mortality (Balb/CJ mice): no mortality
Ames test Result (strain TA100; strain TA100 + S9, 1.0E-04 M): Negative
Ames test Result (strain TA100; strain TA100 + S9, 1.0E-05 M): Negative
Ames test Result (strain TA100; strain TA100 + S9, 5.0E-05 M): Negative
Ames test Result (strain TA100; strain TA100 + S9, 5.0E-06 M): Negative
Ames test Result (strain TA100; strain TA100 – S9, 1.0E-04 M): Negative
Ames test Result (strain TA100; strain TA100 – S9, 1.0E-05 M): Negative
Ames test Result (strain TA100; strain TA100 – S9, 5.0E-05 M): Negative
Ames test Result (strain TA100; strain TA100 – S9, 5.0E-06 M): Negative
mutagenic potential (Ames), TA100 (strain TA100; [3]): negative
CYP2C9 Inhibition (CYP2C9): 4%
treatment effect on body weight (Male C57 BL6/J mice; 4-week administration): did not find a significant treatment effect
behavioral changes / tolerability in NSF paradigm (Male C57 BL6/J mice; 28 days oral administration, 5 and 10 mg/kg): No obvious behavioral changes
inhibition at 10 µM (5-HT2A): 34.1%
dose above which temperature and active behaviors temporarily decreased (C57/BL6J mice; acute): above 100 mg/kg
serious toxic side effects or mortality (C57/BL6J mice; up to 300 mg/kg): no serious toxic side effects or mortality
